Tests used:
[1] = test system: pea rms4 mutant; type: in vivo, Pisum sativum L.
Description: The protocol used is in accordance with that described in example 4 above. Compound concentrations of 100 nM and 3 μM were tested. A negative control consisting of the solvent alone (<<CTL 0>>) was also tested.
The number of dead buds following the treatment with 3 μM of compound was also determined after 8 days of treatment (on groups of 48 plants).

[2] = test system: Phelipanche ramosa pv T; assay: Germinative activity on parasitic plants; type: in vivo; conditions: counted after 4 days
Description: (§1) In this example, the germinative activity of the compounds in accordance with the invention (IIa) and (IIIb) and of the comparative compound GR24 was evaluated on the parasitic plants: Orobanche cumana, Orobanche minor, Striga hermonthica, Phelipanche ramosa (pv T and pv C).
(§2) The test protocol used was the following.
(§3) Two populations of Phelipanche ramosa were used in this study, pathovar (pv) C and T, described in the publication by Benharrat et al. (2005). Seeds of Phelipanche ramosa pathovar C were collected at Saint Martin de Fraigneau, France, on broomrapes parasitizing winter oilseed rape (Brassica napus L.) in 2005 and seeds of Phelipanche ramosa pathovar T were collected in Sarthe, France, on broomrapes developing on hemp (Cannabis sativa L.) in 2007.
(§4) The seeds are stored dry in the dark at 25° C.
(§5) The compounds to be studied were resuspended in acetone at 10 mmol·l^−1, then diluted with water to 1 mmol·l^−1 (water/acetone; v/v; 99/1). Dilutions of 1×10^−3 mol·l^−1 to 1×10^−15 mol·l^−1 were then prepared in a water/acetone mixture (v/v; 99/1). Seeds of parasitic plants were surface-sterilized according to the protocol described in the publication by Vieira Dos Santos et al. (2003), then resuspended in sterile water (10 g·l^−1) and distributed on a 96-well plate (in a proportion of 50 μl, i.e. approximately 100 seeds per well). After preconditioning (7 days, 21° C., in the dark, plate hermetically sealed, except for the seeds of S. hermonthica, which were preconditioned at 30° C.), the compounds to be studied were added and the volumes adjusted to 100 μl with water (water/acetone; v/v; 999/1).
(§6) In a plate, a range of concentrations from 10^−13 mol·l^−1 to 10^−6 mol·l^−1 was applied for GR24 and (IIa) and from 10^−12 to 10^−5 mol·l^−1 for (IIIb). Controls were carried out with a water/acetone mixture (v/v; 999/1) and without seeds. The plates were incubated so as to allow germination (21° C., in the dark or 30° C. for Striga hermonthica.). After 4 days, the seeds which had germinated were counted under a stereomicroscope (SZX10, Olympus). The seeds were considered to have germinated when the radicle was sticking out of the seed tegument. Each germination test was repeated at least 3 times. For each compound tested, dose-response curves (g=f(c), where g is the germination percentage and c the concentration (mol·l^−1)), and the EC50 (median effective concentration) were modeled on the basis of a 4-parameter logistic curve calculated with SigmaPlot® 10.0.
(§7) The percentages of maximum germination induced by the compounds tested for each parasitic plant were determined.

[3] = test system: Phelipanche ramosa pv C; assay: Germinative activity on parasitic plants; type: in vivo; conditions: counted after 4 days
Description: as §1, §2, §3, §4, §5, §6, §7

[4] = Stability in aqueous medium (UPLC, % nondegraded compound); type: physicochemical
Description: The stability in aqueous medium of the compound (IIa) according to the invention and that of GR24 as comparative compound was evaluated in the following way.
Each compound was diluted in acetone (1 ml), then 50 μl of each solution were diluted with methanol (175 μl) and water (750 μl) so as to obtain a compound concentration of 50 μg/ml.
The aqueous solution thus obtained was incubated at 21° C. in HPLC vials.
Indanol (25 μl of a solution at 1 mg/ml in acetone) was added to each solution in order to serve as an internal standard.
The degradation of each compound over time was monitored by analysis of samples taken from the solution at various time intervals, by Ultra Performance Liquid Chromatograpy (UPLC) by means of an Acquity UPLC HSS C18 column (1.8 μm, 2.1×50 mm), eluted first of all with a solution of acetonitrile at 5% in water containing 0.1% of formic acid, for 0.5 min, then with a gradient of 5% to 100% of acetonitrile in water containing 0.1% of formic acid, for 6.5 min, and with 100% of acetonitrile containing 0.1% of formic acid for 3 min. The column was maintained at a temperature of 40° C., with a flow of 0.6 ml/min.
The compounds eluted from the column were detected with a photodiode array detector.
The relative amount of nondegraded compound in the solution was determined by comparison with the internal standard.
In a second experiment, the stability in aqueous medium of the compounds (IIa) and (IIIb) according to the invention, and that of GR24 as comparative compound, was evaluated according to the protocol described above.

Structure (SMILES): CC1=C(C)C(Sc2ccc(Cl)cc2)OC1=O (stereo not drawn) [Compound (IIa), 5-((4-chlorophenyl)thio)-3,4-dimethylfuran-2(5H)-one]
- length of bud/branch at node 3 (toxicity) ([1]; 100 nM and 3 μM, 8 days after treatment at node 3, FIG. 15): absence of effects of the compounds in accordance with the invention (IIa) and (IIIb) compared with a negative control, and between the two treatment doses
- number of dead buds after treatment ([1]; 3 μM, 8 days of treatment, groups of 48 plants, FIG. 16): no significant difference is notable regarding the number of dead buds following the treatment
- Percentage of maximum germination induced [2]: 72 ± 2%
- Percentage of maximum germination induced [3]: 27 ± 4%
- chemical stability in aqueous solution (% of nondegraded compound as a function of incubation time) ([4]; 50 μg/ml of compound in methanol/water: 1/4, pH 6.7, 21° C., FIG. 1): very high chemical stability in aqueous solution, much higher than that of GR24
- chemical stability in aqueous solution (% of nondegraded compound as a function of incubation time) ([4]; second experiment, longer incubation times, 50 μg/ml in methanol/water: 1/4, pH 6.7, 21° C., FIG. 2): very high chemical stability in aqueous solution, much higher than that of GR24

Reference: patent US9532569B2 (INSTITUT NATIONAL DE LA RECHERCHE AGRONOMIQUE, priority 2012, dated 2017)
